# From publication PMC2978510 (Bioorganic & medicinal chemistry, 2010)
# Key:
# [1] = molecular target: T1, CB2 receptor (Homo sapiens, UniProt P34972); settings: ref [31], cited from earlier work
# [2] = mouse; ref [28]; cited from earlier work
# [3] = molecular target: T1, CB2 receptor; test: GTPγS binding in CHO cells stably expressing the human CB2 receptor; assay type: biochemical; settings: for Efficacy at the CB2 receptor: GTPγS binding, relative to CP-55,940
# [4] = molecular target: CB2 receptor; settings: cited from earlier work; for Ki: read-out: Affinity for the CB2 receptor, Merck Frosst group, ref [29]
# [5] = test system: CB1 receptor; settings: Merck Frosst group; ref [29]; cited from earlier work
# [6] = molecular target: CB1 receptor (Rattus norvegicus, UniProt P20272); settings: read-out: Ki (nM) CB1; mean ± SEM; ref [31]; cited from earlier work
# Sequence of CB1 receptor (Rattus norvegicus, UniProt P20272) (P20272 whole entry): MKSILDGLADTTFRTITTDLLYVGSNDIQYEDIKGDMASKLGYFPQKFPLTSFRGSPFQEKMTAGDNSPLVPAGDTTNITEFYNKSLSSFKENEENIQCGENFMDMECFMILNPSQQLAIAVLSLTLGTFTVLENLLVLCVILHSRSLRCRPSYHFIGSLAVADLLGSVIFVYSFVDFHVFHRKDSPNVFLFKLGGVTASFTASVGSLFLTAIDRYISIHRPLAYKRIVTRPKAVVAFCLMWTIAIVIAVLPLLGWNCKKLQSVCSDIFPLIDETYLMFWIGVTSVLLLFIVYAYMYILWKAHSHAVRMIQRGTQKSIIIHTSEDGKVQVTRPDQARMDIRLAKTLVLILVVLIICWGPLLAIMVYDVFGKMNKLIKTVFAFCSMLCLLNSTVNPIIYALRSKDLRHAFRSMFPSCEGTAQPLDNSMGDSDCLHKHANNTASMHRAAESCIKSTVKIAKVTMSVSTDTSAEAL
# T1 sequence (P34972 whole entry): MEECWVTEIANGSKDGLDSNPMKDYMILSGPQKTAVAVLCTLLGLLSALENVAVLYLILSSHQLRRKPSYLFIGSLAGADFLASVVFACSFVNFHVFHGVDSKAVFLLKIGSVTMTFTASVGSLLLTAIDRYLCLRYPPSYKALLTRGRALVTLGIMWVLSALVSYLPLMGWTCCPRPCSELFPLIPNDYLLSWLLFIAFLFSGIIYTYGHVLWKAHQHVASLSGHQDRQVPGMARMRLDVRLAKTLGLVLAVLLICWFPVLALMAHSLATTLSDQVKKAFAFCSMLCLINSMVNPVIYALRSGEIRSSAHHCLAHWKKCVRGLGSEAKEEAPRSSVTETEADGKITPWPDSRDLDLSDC
compound,measurement,setting,value
CCCCCCC(C)(C)c1cc(OC)c2c(c1)OC(C)(C)C1CC=C(C)CC21 (stereo not shown) [JWH-143],Selectivity for the CB2 receptor,[1]; 1-methoxy series,12 fold
"CCCCCCC(C)(C)c1ccc2c(c1)OC(C)(C)[C@@H]1CC=C(CO)C[C@@H]21 [Compound 2, 11-hydroxy-3-(1′,1′-dimethylheptyl)-1-deoxy-Δ^8-THC]",Potency in vivo,[2],potent cannabinoid in vivo in the mouse
"CCCCCCC(C)(C)c1cc(Br)c2c(c1)OC(C)(C)[C@@H]1CC=C(C)C[C@@H]21 [JWH-383, 1-Bromo-1-deoxy-3-(1′,1′-dimethylheptyl)-Δ^8-tetrahydrocannabinol]",Efficacy at the CB2 receptor,[3],full agonists
"CCCCCC(C)(C)c1cc(Br)c2c(c1)OC(C)(C)[C@@H]1CC=C(C)C[C@@H]21 [JWH-393, 1-Bromo-1-deoxy-3-(1′,1′-dimethylhexyl)-Δ^8-tetrahydrocannabinol]",Efficacy at the CB2 receptor,[3],full agonists
same,Emax,"[3]; read-out: Emax (% CP-55940), percent relative to 3 μM CP-55,940, mean ± SEM",98.3 ± 6.8%
"C=C1CCC2C(C1)c1c(OC)cc(C(C)(C)CCCCCC)cc1OC2(C)C (stereo not shown) [Compound 5, 1-methoxy-Δ^9(11)-THC-DMH]",Ki,[4],~20 nM
same,Affinity for the CB1 receptor,[5],negligible affinity
CCCC(C)(C)c1cc(OC)c2c(c1)OC(C)(C)[C@@H]1CC=C(C)C[C@@H]21 [JWH-214],Ki,[6],> 10000 nM
same,Ki,"[1]; read-out: Ki (nM) CB2, mean ± SEM",325 ± 70 nM
"CCCCCCC(C)(C)c1cc(OC)c2c(c1)OC(C)(C)C1CC=C(C)CC21 (stereo not shown) [Compound 4, 1-methoxy-Δ^8-THC-DMH]",Ki,[4],~20 nM
same,Affinity for the CB1 receptor,[5],negligible affinity
"CCCCCCC(C)(C)c1ccc2c(c1)OC(C)(C)[C@@H]1CC=C(C)C[C@@H]21 [Compound 3, 3-(1′,1′-dimethylheptyl)-1-deoxy-Δ^8-THC]",Potency in vivo,[2],potent in vivo
same,Selectivity for the CB2 receptor,[4]; ref [28],nearly ten-fold selectivity
